Assay results reported in patent publication US9096524B2, “Anthelmintic agents and their use” (Intervet International B.V., priority 2009, dated 2015).
Like-named read-outs stand apart in the source and are kept apart here.

System: A. galli (intestinal roundworm of chicken) larval stage 3; O. dentatum (nodular worm of swine) larval stages 3 and 4
Test: Activity against Ascaridia galli and Oesophagostomum dentatum larvae in vitro (minimum effective concentration)
Format: cell-based
[1] = read-out: MEC (minimum effective concentration) against one or more of the tested nematodes, in vitro, one or more of A. galli L3, O. dentatum L3, L4, threshold 1 μM
[2] = read-out: MEC (minimum effective concentration) against one or more of the tested nematodes, in vitro, one or more of A. galli L3, O. dentatum L3, L4, threshold 7 μM
[3] = read-out: MEC (minimum effective concentration) against two or more of the tested nematodes, in vitro, two or more of A. galli L3, O. dentatum L3, L4, threshold 1 μM
[4] = in vitro, one or more of A. galli L3, O. dentatum L3, L4, threshold 1 μM, read-out: MEC (minimum effective concentration) against one or more of the tested nematodes
[5] = in vitro, one or more of A. galli L3, O. dentatum L3, L4, threshold 7 μM, read-out: MEC (minimum effective concentration) against one or more of the tested nematodes
[6] = in vitro, two or more of A. galli L3, O. dentatum L3, L4, threshold 1 μM, read-out: MEC (minimum effective concentration) against two or more of the tested nematodes

## O=C(CC(=O)N1CCN(c2ccc(C(F)(F)F)cc2)CC1)N1CCC(Nc2ccc([N+](=O)[O-])c(C(F)(F)F)c2)CC1 [Example 78, 1-[4-(4-nitro-3-trifluoromethyl-phenylamino)-piperidin-1-yl]-3-[4-(4-trifluoromethyl-phenyl)-piperazin-1-yl]-propane-1,3-dione]
[1]
  minimal effective concentration: < 1 µM
[2]
  minimal effective concentration: < 7 µM
[3]
  minimal effective concentration: < 1 µM

## O=C(CCCN1CCN(c2ccc(C(F)(F)F)cc2)CC1)N1CCC(Oc2ccc([N+](=O)[O-])c(C(F)(F)F)c2)CC1 [Example 79, 1-[4-(4-nitro-3-trifluoromethyl-phenoxy)-piperidin-1-yl]-4-[4-(4-trifluoromethyl-phenyl)-piperazin-1-yl]-butan-1-one]
[1]
  minimal effective concentration: < 1 µM
[2]
  minimal effective concentration: < 7 µM
[3]
  minimal effective concentration: < 1 µM

## O=C(CCCN1CCN(c2ccc(C(F)(F)F)cc2)CC1)N1CCC(Nc2cccc(C(F)(F)F)c2)CC1 [Example 81, 1-[4-(3-trifluoromethyl-phenylamino)-piperidin-1-yl]-4-[4-(4-trifluoromethyl-phenyl)-piperazin-1-yl]-butan-1-one]
[1]
  minimal effective concentration: < 1 µM
[2]
  minimal effective concentration: < 7 µM
[3]
  minimal effective concentration: < 1 µM

## N#Cc1ccc(NC2CCN(C(=O)CCCN3CCN(c4ccc(C(F)(F)F)cc4)CC3)CC2)cc1 [Example 83, 4-(1-{4-[4-(4-trifluoromethyl-phenyl)-piperazin-1-yl]-butyryl}-piperidin-4-ylamino)-benzonitrile]
[1]
  minimal effective concentration: < 1 µM
[2]
  minimal effective concentration: < 7 µM
[3]
  minimal effective concentration: < 1 µM

## O=C(CCCN1CCN(c2ccc(C(F)(F)F)cc2)CC1)N1CCC(Nc2ccc([N+](=O)[O-])nc2)CC1 [Example 95, 1-[4-(6-nitro-pyridin-3-ylamino)-piperidin-1-yl]-4-[4-(4-trifluoromethyl-phenyl)-piperazin-1-yl]-butan-1-one]
[1]
  minimal effective concentration: < 1 µM
[2]
  minimal effective concentration: < 7 µM
[3]
  minimal effective concentration: < 1 µM

## O=C(CCCN1CCN(c2ccc(C(F)(F)F)cc2)CC1)N1CCC(Nc2ccc([N+](=O)[O-])cn2)CC1 [Example 98, 1-[4-(5-nitro-pyridin-2-ylamino)-piperidin-1-yl]-4-[4-(4-trifluoromethyl-phenyl)-piperazin-1-yl]-butan-1-one]
[1]
  minimal effective concentration: < 1 µM
[2]
  minimal effective concentration: < 7 µM
[3]
  minimal effective concentration: < 1 µM

## Cc1nc(NC2CCN(C(=O)CCCN3CCN(c4ccc(C(F)(F)F)cc4)CC3)CC2)ccc1[N+](=O)[O-] [Example 101, 1-[4-(6-methyl-5-nitro-pyridin-2-ylamino)-piperidin-1-yl]-4-[4-(4-trifluoromethyl-phenyl)-piperazin-1-yl]-butan-1-one]
[1]
  minimal effective concentration: < 1 µM
[2]
  minimal effective concentration: < 7 µM
[3]
  minimal effective concentration: < 1 µM

## N#Cc1ccc(NC2CCN(C(=O)CCCN3CCN(c4ccc(C(F)(F)F)cc4)CC3)CC2)cc1Cl [Example 105, 2-chloro-4-(1-{4-[4-(4-trifluoromethyl-phenyl)-piperazin-1-yl]-butyryl}-piperidin-4-ylamino)-benzonitrile]
[1]
  minimal effective concentration: < 1 µM
[2]
  minimal effective concentration: < 7 µM
[3]
  minimal effective concentration: < 1 µM

## CC(C)(C)c1ccc(N2CC3CN(CCC(=O)N4CCC(Nc5ccc([N+](=O)[O-])c(C(F)(F)F)c5)CC4)CC3C2)cc1 (stereo not shown) [Example 128, 3-[5-(4-tert-butyl-phenyl)-hexahydro-pyrrolo[3,4-c]pyrrol-2-yl]-1-[4-(4-nitro-3-trifluoromethyl-phenylamino)-piperidin-1-yl]-propan-1-one]
[1]
  minimal effective concentration: < 1 µM
[2]
  minimal effective concentration: < 7 µM
[3]
  minimal effective concentration: < 1 µM

## CC(CN1CCN(c2ccc(C(C)(C)C)cc2)CC1)C(=O)N1CCC(Nc2ccc([N+](=O)[O-])c(C(F)(F)F)c2)CC1 (stereo not shown) [Example 130, 3-[4-(4-tert-butyl-phenyl)-piperazin-1-yl]-2-methyl-1-[4-(4-nitro-3-trifluoromethyl-phenylamino)-piperidin-1-yl]-propan-1-one]
[1]
  minimal effective concentration: < 1 µM
[2]
  minimal effective concentration: < 7 µM
[3]
  minimal effective concentration: < 1 µM

## CC(C)(C)c1ccc(N2CCC(CCCC(=O)N3CCC(Nc4ccc([N+](=O)[O-])c(C(F)(F)F)c4)CC3)CC2)cc1 [Example 137, 4-[1-(4-tert-butyl-phenyl)-piperidin-4-yl]-1-[4-(4-nitro-3-trifluoromethyl-phenylamino)-piperidin-1-yl]-butan-1-one]
[1]
  minimal effective concentration: < 1 µM
[2]
  minimal effective concentration: < 7 µM
[3]
  minimal effective concentration: < 1 µM

## O=C(CCC1CCN(c2ccc(C(F)(F)F)cc2)CC1)N1CCC(Nc2ccc([N+](=O)[O-])c(C(F)(F)F)c2)CC1 [Example 141, 1-[4-(4-nitro-3-trifluoromethyl-phenylamino)-piperidin-1-yl]-3-[1-(4-trifluoromethyl-phenyl)-piperidin-4-yl]-propan-1-one]
[1]
  minimal effective concentration: < 1 µM
[2]
  minimal effective concentration: < 7 µM
[3]
  minimal effective concentration: < 1 µM

## O=C(CCC1CCN(c2ccc(Cl)cc2)CC1)N1CCC(Nc2ccc([N+](=O)[O-])c(C(F)(F)F)c2)CC1 [Example 144, 3-[1-(4-chloro-phenyl)-piperidin-4-yl]-1-[4-(4-nitro-3-trifluoromethyl-phenylamino)-piperidin-1-yl]-propan-1-one]
[1]
  minimal effective concentration: < 1 µM
[2]
  minimal effective concentration: < 7 µM
[3]
  minimal effective concentration: < 1 µM

## CC(C)(C)c1ccc(N2CCC(CCC(=O)N3CCC(Nc4ccc([N+](=O)[O-])c(C(F)(F)F)c4)CC3)CC2)cc1 [Example 147, 3-[1-(4-tert-butyl-phenyl)-piperidin-4-yl]-1-[4-(4-nitro-3-trifluoromethyl-phenylamino)-piperidin-1-yl]-propan-1-one]
[1]
  minimal effective concentration: < 1 µM
[2]
  minimal effective concentration: < 7 µM
[3]
  minimal effective concentration: < 1 µM

## O=C(CCCN1CCN(c2ccc(C(F)(F)F)nc2)CC1)N1CCC(Nc2ccc([N+](=O)[O-])c(C(F)(F)F)c2)CC1 [Example 149, 1-[4-(4-nitro-3-trifluoromethyl-phenylamino)-piperidin-1-yl]-4-[4-(6-trifluoromethyl-pyridin-3-yl)-piperazin-1-yl]-butan-1-one]
[1]
  minimal effective concentration: < 1 µM
[2]
  minimal effective concentration: < 7 µM
[3]
  minimal effective concentration: < 1 µM

## O=C(CCCN1CCN(c2nnc(C(F)(F)F)s2)CC1)N1CCC(Nc2ccc([N+](=O)[O-])c(C(F)(F)F)c2)CC1 [Example 153, 1-[4-(4-nitro-3-trifluoromethyl-phenylamino)-piperidin-1-yl]-4-[4-(5-trifluoromethyl-1,3,4-thiadiazol-2-yl)-piperazin-1-yl]-butan-1-one]
[1]
  minimal effective concentration: < 1 µM
[2]
  minimal effective concentration: < 7 µM
[3]
  minimal effective concentration: < 1 µM

## N#Cc1ccc(NC2CCN(C(=O)CCCC3CCN(c4ccc(C(F)(F)F)cc4)CC3)CC2)cc1C(F)(F)F [Example 156, 2-trifluoromethyl-4-(1-{4-[1-(4-trifluoromethyl-phenyl)-piperidin-4-yl]-butyryl}-piperidin-4-ylamino)-benzonitrile]
[4]
  minimal effective concentration: < 1 µM
[5]
  minimal effective concentration: < 7 µM
[6]
  minimal effective concentration: < 1 µM

## CC(C)(C)c1ccc(N2CCCN(CCCC(=O)N3CCC(Nc4ccc([N+](=O)[O-])c(C(F)(F)F)c4)CC3)CC2)cc1 [Example 163, 4-[4-(4-tert-butyl-phenyl)-[1,4]diazepan-1-yl]-1-[4-(4-nitro-3-trifluoromethyl-phenylamino)-piperidin-1-yl]-butan-1-one]
[1]
  minimal effective concentration: < 1 µM
[2]
  minimal effective concentration: < 7 µM
[3]
  minimal effective concentration: < 1 µM

## CC(C)(C)c1ccc(N2CCN(CCCC(=O)N3CC[C@@H](Nc4ccc([N+](=O)[O-])c(C(F)(F)F)c4)C3)CC2)cc1 [Example 168, 4-[4-(4-tert-butyl-phenyl)-piperazin-1-yl]-1-[(R)-3-(4-nitro-3-trifluoromethyl-phenylamino)-pyrrolidin-1-yl]-butan-1-one]
[1]
  minimal effective concentration: < 1 µM
[2]
  minimal effective concentration: < 7 µM
[3]
  minimal effective concentration: < 1 µM

## O=C(CCN1CCN(c2ccccc2)CC1)N1CCC(Nc2ccc([N+](=O)[O-])c(C(F)(F)F)c2)CC1 [Example 169]
[5]
  minimal effective concentration: < 7 µM

## O=C(CCN1CCN(c2ccccc2)CC1)N1CCC(Nc2ccc([N+](=O)[O-])c(C(F)(F)F)c2)CC1 [Example 171]
[4]
  minimal effective concentration: < 1 µM
[6]
  minimal effective concentration: < 1 µM

## O=C(COC1CCN(c2ccc([N+](=O)[O-])c(C(F)(F)F)c2)CC1)N1CCN(c2ccc(Cl)cc2)CC1 [Example 179]
[4]
  minimal effective concentration: < 1 µM

## N#Cc1ccc(N2CCN(C(=O)COC3CCN(c4ccc([N+](=O)[O-])c(C(F)(F)F)c4)CC3)CC2)cc1 [Example 180]
[4]
  minimal effective concentration: < 1 µM

## O=C(CCN1CCN(c2cccc(C(F)(F)F)c2)CC1)N1CCC(Nc2ccc([N+](=O)[O-])c(C(F)(F)F)c2)CC1 [Example 183]
[6]
  minimal effective concentration: < 1 µM

## O=C(CCN1CCN(c2cccc(OC(F)(F)F)c2)CC1)N1CCC(Nc2ccc([N+](=O)[O-])c(C(F)(F)F)c2)CC1 [Example 191]
[6]
  minimal effective concentration: < 1 µM

## O=C(CCN1CCC(Nc2ccc([N+](=O)[O-])c(C(F)(F)F)c2)CC1)N1CCN(c2ccc(Cl)cc2)CC1 [Example 199]
[4]
  minimal effective concentration: < 1 µM

## N#Cc1ccc(N2CCN(C(=O)CCN3CCC(Nc4ccc([N+](=O)[O-])c(C(F)(F)F)c4)CC3)CC2)cc1 [Example 200]
[4]
  minimal effective concentration: < 1 µM

## O=C(CC(=O)N1CCN(c2ccc(Cl)c(C(F)(F)F)c2)CC1)N1CCC(Nc2ccc([N+](=O)[O-])c(C(F)(F)F)c2)CC1 [Example 202]
[6]
  minimal effective concentration: < 1 µM
